# Measured values published in patent publication US20060069132A1, “Azolecarboxamide herbicides” (priority 2004, published 2006).
# What was measured:
# barnyardgrass [1] = assay: Test B pre-/postemergence herbicide test; assay type: in vivo, Echinochloa crus-galli; conditions: for Barnyardgrass plant response rating: postemergence
# Summary of the method: (§1)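 Greenhouse pot assay with simultaneous preemergence (treated seed) and postemergence (2–18 cm seedlings) applications of surfactant-containing, non-phytotoxic solvent formulations. Response scored visually 13–15 days later on a 0–100 scale, 100 meaning complete control.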
# morningglory = assay: Test B pre-/postemergence herbicide test; assay type: in vivo, Ipomoea coccinea; conditions: for Morningglory plant response rating: postemergence
# Summary of the method: as §1
# [2] = system: smallflower umbrella sedge; assay: Test C flooded paddy test; assay type: in vivo, Cyperus difformis
# Description: (§2) At the same time, plants selected from these crop and weed species and also winter barley (Hordeum vulgare L.), blackgrass (Alopecurus myosuroides Huds.), canarygrass (Phalaris minor Retz.), chickweed (Stellaria media (L.) Vill.), downy bromegrass (Bromus tectorum L.), green foxtail (Setaria viridis (L.) Beauv.), Italian ryegrass (Lolium multiflorum Lam.), wheat (Triticum aestivum L.), wild oat (Avenafatua L.) and windgrass (Apera spica-venti (L.) Beauv.) were treated with postemergence applications of some of the test chemicals formulated in the same manner. Plants ranged in height from 2 to 18 cm (1- to 4-leaf stage) for postemergence treatments. Plant species in the flooded paddy test consisted of rice (Oryza sativa), smallflower umbrella sedge (Cyperus difformis L.), ducksalad (Heteranthera limosa (Sw.) Willd.) and barnyardgrass (Echinochloa crus-galli (L.) Beauv.) grown to the 2-leaf stage for testing. Treated plants and controls were maintained in a greenhouse for 12 to 14 days, after which time all species were compared to controls and visually evaluated. Plant response ratings, summarized in Table C, are based on a scale of 0 to 100 where 0 is no effect and 100 is complete control. A dash (-) response means no test result.
# large crabgrass = assay: Test B pre-/postemergence herbicide test; assay type: in vivo, Digitaria sanguinalis; conditions: for Crabgrass, Large plant response rating: postemergence
# Summary of the method: (§3)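 Test chemicals in a non-phytotoxic solvent mixture with surfactant were applied preemergence to seeded species and postemergence to plants 2-18 cm tall (1- to 4-leaf stage); rice and barnyardgrass were also tested in a flooded paddy at the 2-leaf stage. Visual rating versus controls after 13-15 days in greenhouse, scale 0 (no effect) to 100 (complete control).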
# pigweed = assay: Test B pre-/postemergence herbicide test; assay type: in vivo, Amaranthus retroflexus; conditions: for Pigweed plant response rating: postemergence
# Summary of the method: as §3
# rice [3] = assay: Test C flooded paddy test; assay type: in vivo, Oryza sativa
# Description: as §2
# ducksalad [4] = assay: Test C flooded paddy test; assay type: in vivo, Heteranthera limosa
# Description: as §2
# wheat = assay: Test B postemergence herbicide test; assay type: in vivo, Triticum aestivum; design: key to Wheat plant response rating: 0 = no effect, 100 = complete control; conditions: postemergence
# Summary of the method: (§4)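 Scale 0–100: zero equals no visible effect, 100 complete control, judged by eye relative to controls. Timing: 13 to 15 days in greenhouse post-treatment. Growth stage at spraying: two leaves (paddy) or one to four leaves, 2–18 cm (postemergence).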
# barnyardgrass [5] = assay: Test C flooded paddy test; assay type: in vivo, Echinochloa crus-galli
# Description: as §2
# blackgrass = assay: Test B postemergence herbicide test; assay type: in vivo, Alopecurus myosuroides; conditions: postemergence
# Summary of the method: (§5)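 Greenhouse test; postemergence application to plants at 1–4 leaves (2–18 cm); paddy species at 2 leaves; evaluated visually vs controls at 13–15 days; scale 0–100 (100 = complete control).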
# lambsquarters = assay: Test B pre-/postemergence herbicide test; assay type: in vivo, Chenopodium album; conditions: for Lambsquarters plant response rating: postemergence
# Summary of the method: as §3
# velvetleaf = assay: Test B pre-/postemergence herbicide test; assay type: in vivo, Abutilon theophrasti; conditions: for Velvetleaf plant response rating: postemergence
# Summary of the method: as §3
# [6] = system: small flower umbrella sedge; assay: Test B flooded paddy test; assay type: in vivo, Cyperus difformis; conditions: 1000 g ai/ha, scale 0 to 100 (0 no effect, 100 complete control)
# Summary of the method: as §5
# wild oat = assay: Test B postemergence herbicide test; assay type: in vivo, Avena fatua; conditions: postemergence
# Summary of the method: as §4
# Surinam grass = assay: Test B pre-/postemergence herbicide test; assay type: in vivo, Urochloa decumbens; conditions: for Surinam Grass plant response rating: postemergence
# Summary of the method: as §3
# giant foxtail = assay: Test B pre-/postemergence herbicide test; assay type: in vivo, Setaria faberi; conditions: for Foxtail, Giant plant response rating: postemergence
# Summary of the method: as §3
# cocklebur = assay: Test B pre-/postemergence herbicide test; assay type: in vivo, Xanthium strumarium; conditions: for Cocklebur plant response rating: postemergence
# Summary of the method: as §1
# ducksalad [7] = assay: Test B flooded paddy test; assay type: in vivo, Heteranthera limosa; conditions: 1000 g ai/ha, scale 0 to 100 (0 no effect, 100 complete control)
# Summary of the method: as §5
# barnyardgrass [8] = assay: Test B flooded paddy test; assay type: in vivo, Echinochloa crus-galli; conditions: 1000 g ai/ha, scale 0 to 100 (0 no effect, 100 complete control)
# Summary of the method: as §5
# rice [9] = assay: Test B flooded paddy test; assay type: in vivo, Oryza sativa; conditions: 1000 g ai/ha, scale 0 to 100 (0 no effect, 100 complete control)
# Summary of the method: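 Paddy species grown to the 2-leaf stage under flooding; blackgrass sprayed postemergence at 2–18 cm (1- to 4-leaf stage). Plants kept in a greenhouse for 13 to 15 days, then visually rated against controls on 0 (no effect) to 100 (complete control).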
# corn = assay: Test B pre-/postemergence herbicide test; assay type: in vivo, Zea mays; conditions: for Corn plant response rating: postemergence
# Summary of the method: as §3
# [10] = 125 g ai/ha, 0 is no effect, 100 is complete control, preemergence
# [11] = 125 g ai/ha, visual rating, scale 0 (no effect) to 100 (complete control)
# [12] = 500 g ai/ha, visual rating, 0 = no effect, 100 = complete control, preemergence
# [13] = 500 g ai/ha, scale 0 to 100, 0 is no effect, 100 is complete control
# [14] = 125 g ai/ha, scale 0 to 100 (0 no effect, 100 complete control)
# [15] = 250 g ai/ha, scale of 0 to 100, 0 is no effect, 100 is complete control
# [16] = 500 g ai/ha, visual rating after 12 to 14 days, scale 0 to 100 (0 no effect, 100 complete control)
structure (smiles),measurement,setting,value
Cc1nn(C(C)(C)C)cc1C(=O)Nc1cc(C(=O)N(C)C)ccc1F [Compound 344],"Plant response rating (0 to 100 scale), Barnyardgrass",barnyardgrass [1]; [10],20
same,Barnyardgrass plant response rating,barnyardgrass [1]; [11],0
same,"Plant response rating, Barnyardgrass",barnyardgrass [1]; [12],70
same,Barnyardgrass plant response rating,barnyardgrass [1]; [13],10
same,"Plant response rating (0 to 100 scale), Morningglory",morningglory; [10],10
same,Morningglory plant response rating,morningglory; [11],10
same,"Plant response rating, Morningglory",morningglory; [12],80
same,Morningglory plant response rating,morningglory; [13],50
same,"Sedge, Umbrella plant response rating","[2]; 62 g ai/ha, scale 0 to 100",0
same,"Sedge, Umbrella plant response rating",[2]; [14],75
same,"Sedge, Umbrella plant response rating",[2]; [15],75
same,"Plant response rating, Sedge, Umbrella",[2]; [16],85
same,"Plant response rating (0 to 100 scale), Crabgrass, Large",large crabgrass; [10],60
same,"Crabgrass, Large plant response rating",large crabgrass; [11],0
same,"Crabgrass, Large plant response rating",large crabgrass; [13],10
same,"Plant response rating (0 to 100 scale), Pigweed",pigweed; [10],90
same,Pigweed plant response rating,pigweed; [11],20
same,"Plant response rating, Pigweed",pigweed; [12],90
same,Pigweed plant response rating,pigweed; [13],50
same,Rice plant response rating,"rice [3]; 62 g ai/ha, scale 0 to 100",0
same,Rice plant response rating,rice [3]; [14],0
same,Rice plant response rating,rice [3]; [15],0
same,"Plant response rating, Rice",rice [3]; [16],15
same,Ducksalad plant response rating,"ducksalad [4]; 62 g ai/ha, scale 0 to 100",0
same,Ducksalad plant response rating,ducksalad [4]; [14],0
same,Ducksalad plant response rating,ducksalad [4]; [15],20
same,"Plant response rating, Ducksalad",ducksalad [4]; [16],45
same,Wheat plant response rating,wheat; [11],0
same,Wheat plant response rating,wheat; [13],10
same,Barnyardgrass plant response rating,"barnyardgrass [5]; 62 g ai/ha, scale 0 to 100 (0 no effect, 100 complete control)",0
same,Barnyardgrass plant response rating,barnyardgrass [5]; [14],0
same,Barnyardgrass plant response rating,barnyardgrass [5]; [15],0
same,"Plant response rating, Barnyardgrass",barnyardgrass [5]; [16],0
same,Blackgrass plant response rating,blackgrass; [11],0
same,Blackgrass plant response rating,blackgrass; [13],0
same,"Plant response rating (0 to 100 scale), Lambsquarters",lambsquarters; [10],90
same,Lambsquarters plant response rating,lambsquarters; [11],20
same,"Plant response rating, Lambsquarters",lambsquarters; [12],100
same,Lambsquarters plant response rating,lambsquarters; [13],40
same,"Plant response rating (0 to 100 scale), Velvetleaf",velvetleaf; [10],40
same,Velvetleaf plant response rating,velvetleaf; [11],20
same,Velvetleaf plant response rating,velvetleaf; [13],30
same,"Sedge, Umbrella plant response rating",[6],80
same,"Oat, Wild plant response rating",wild oat; [11],0
same,"Oat, Wild plant response rating",wild oat; [13],0
same,"Plant response rating (0 to 100 scale), Surinam Grass",Surinam grass; [10],30
same,Surinam Grass plant response rating,Surinam grass; [11],0
same,"Plant response rating, Surinam Grass",Surinam grass; [12],100
same,Surinam Grass plant response rating,Surinam grass; [13],10
same,"Plant response rating (0 to 100 scale), Foxtail, Giant",giant foxtail; [10],10
same,"Foxtail, Giant plant response rating",giant foxtail; [11],10
same,"Plant response rating, Foxtail, Giant",giant foxtail; [12],60
same,"Foxtail, Giant plant response rating",giant foxtail; [13],10
same,"Plant response rating (0 to 100 scale), Cocklebur",cocklebur; [10],20
same,Cocklebur plant response rating,cocklebur; [11],0
same,"Plant response rating, Cocklebur",cocklebur; [12],70
same,Cocklebur plant response rating,cocklebur; [13],10
same,Ducksalad plant response rating,ducksalad [7],80
same,Barnyardgrass plant response rating,barnyardgrass [8],60
same,Rice plant response rating,rice [9],70
same,"Plant response rating (0 to 100 scale), Corn",corn; [10],10
same,Corn plant response rating,corn; [11],10
same,"Plant response rating, Corn",corn; [12],90
same,Corn plant response rating,corn; [13],10
